Data reported in US9458118B2, “Sodium channel modulators for the treatment of pain and diabetes” (CHROMOCELL CORPORATION, priority 2013, dated 2016).

How the values were obtained:
NaV1.7 = target: T1, NaV1.7 (Homo sapiens, UniProt Q15858); assay: FDSS membrane potential in-vitro assay; assay type: cell-based; conditions: stimulation with veratridine and scorpion venom
T1 construct: expressed in transfected cells
Description: In vitro assays were performed in recombinant cell line that stably express a heterotrimeric protein of interest from an introduced nucleic acid encoding the alpha subunit (hNav1.7, SCN9A), the beta subunit (SCNB1) and the beta subunit (SCNB2). The cell line was engineered using Human Embryonic Kidney 293 cells as host background. Additional cell lines stably expressing recombinant Nav1.7 or Nav1.5 alpha subunit alone or in combination with various beta subunits can also be used in in-vitro assays. […]
Blue membrane potential dye (Molecular Devices Inc.), or membrane potential-sensitive dye, HLB021-152 (AnaSpec) were combined with a fluorescence quencher, e.g., Dipicrylamine (DPA), Acid Violet 17 (AV 17), Diazine Black (DB), HLB30818, FD and C Black Shade, Trypan Blue, Bromophenol Blue, HLB30701, HLB30702, HLB30703, Nitrazine Yellow, Nitro Red, DABCYL (Molecular Probes), FD and C Red NO. […]
The cells were incubated with the membrane potential dye for 45-60 mins at 37° C. The dye-loaded assay plates were then placed in the high-throughput fluorescent plate reader (Hamamatsu FDSS). The kinetic read was started with assay plate imaging every second. […]
Control response elicited by veratridine and scorpion venom with buffer only (without test compounds added) was taken as the maximal response. […] The data were analyzed using GraphPad Prism software to determine the […] value for the test compound. […]

Sprague-Dawley rats = assay: Partial sciatic nerve ligation (PSNL) model, behavioral tests; assay type: in vivo, rat; conditions: oral route, measured 30 minutes post dose
Source text: 250-350 g male Sprague-Dawley rats from appropriate animal resources were anesthetized with 2.5% isoflurane. A hind leg was shaved, and the skin was sterilized with 0.5% iodine and 75% alcohol. All surgical instruments were sterilized before surgery and between animals. An incision (1 cm) was made at the middle of the thigh in parallel with the muscle and sciatic nerve distribution. The muscle was exposed and dissected at the joint of two muscles (biceps femoris) indicated by the light colored (white) fascia line. […]
The analgesic effect of the test compound was expressed as a percent recovery (% Recovery) relative to the sham control group baseline and calculated according to the formula: % Recovery=100%−{[(sham mean-test compound mean)/(sham mean-vehicle mean)]×100%} wherein “sham mean” refers to average score in the sham-operated group; “test compound mean” refers to average score in the PSNL-group (animals with partial sciatic nerve ligation) or diabetic group (animals treated with STZ) treated with a test compound; “vehicle mean” refers to average score in the PSNL-group or diabetic group treated with vehicle only. […]
Animals were placed under clear plastic boxes above a wire mesh floor, which allowed full access to the paws. […] Mechanical paw withdrawal thresholds (PWTs) were measured with the up-down testing paradigm. […]

rat = assay: Formalin test (pain behaviors); assay type: in vivo; conditions: 150 μL of 1 or 2% w/v solution, topical route
diabetic rats = assay: Anti-diabetic and analgesic effect after chronic dosing in the rat STZ model of diabetes; assay type: in vivo
Description: 250-350 g male Sprague-Dawley rats from appropriate animal resources were used. Type I diabetes was induced by a single injection, (intraperitoneally, intravenously or intramuscularly) of 50-100 mg/kg of streptozotocin (STZ, Sigma Chemicals, St. Louis, Mo. or VWR) freshly dissolved in sodium citrate (0.01 M, pH 4.5). Sham animals were given either saline or same vehicle injection. Following a wait time of about two days, inducement of diabetes was confirmed in STZ-injected rats by measuring the plasma glucose concentrations in blood samples from the tail vein after a fast of 6 hours. The glucose level was assayed using a mini glucose monitor (kit for AlphaTRAK 2 meter, available from Abbott Laboratories). Screening for hyperglycemia in STZ-injected animals was done, with only animals with a final blood glucose level ≧300 mg/dl being selected for the study. Glucose levels in the sham animals remained normal. Other parameters (water intake, food intake, and bodyweight) were monitored before the treatment with a test compound and after the cessation of the treatment.
A Compound provided herein is tested in the rat STZ model of diabetes by chronic administration of the Compound for at least 7 days to evaluate analgesic and antidiabetic effects of the Compound. The analgesic effect of the Compound can be evaluated using behavioral tests (e.g., von Frey test, plantar test, and paw pressure test described herein below). The anti-diabetic effect of the Compound can be evaluated based on the improvement in the glucose level, food intake, water intake in the compound treated group compared to the untreated vehicle group and the normal, non-diabetic sham control group.
Diabetes mellitus was induced in rats as described in the section entitled “The Streptozotocin (STZ)-Induced Model of Diabetic Neuropathy” above.
The baseline glucose levels, daily food and water intake and behavioral tests (von Frey, paw pressure and plantar tests) were measured for each animal once weekly for 28 weeks, and once every 2-4 weeks for an additional 28-30 weeks. At a selected week (started from week 6) for a compound test, diabetic rats were divided into two test groups: a vehicle control group and a test compound treated group (n=10 each group). A sham group (saline only without STZ i.p. injection, n=10) was added as a normal, non-diabetic control group. To minimize animal stress associated with repeated daily handling, the compound treated diabetic group of animals received the test compound at a daily dose of 60 mg/kg in their drinking water containing 2% PEG600 and 1% glycofurol (the test compound concentration in the drinking water was based on the individual animal's average daily water consumption as determined the pre-dosing period, which averaged 0.1-0.11 mg/ml). The vehicle control group received drinking water containing 2% PEG600 and 1% glycofurol without the test compound. The treatment continued for 9 days. On day 10 drinking water with test compound or vehicle (2% PEG600 and 1% glycofurol) was replaced with plain drinking water in all groups. The monitoring of glucose levels, food and water intake as well as behavior tests continued for additional 28-30 weeks. […] A gradual, significant reversal of up to 90% of mechanical allodynia (von Frey test) was achieved after 9 days of treatment.
FIGS. 1-3 show food intake, glucose level, and water intake, respectively, for the vehicle control group, the test compound treated group (compound 49, 60 mg/kg/day), and the sham group. […] The significant reduction of food intake, glucose level, and water intake of the compound treated group compared to the vehicle control group continues through week 52. […] Since the standard deviation in the sham groups are less than 5%, no error bars are shown.

[1] = diabetic rats, 60 mg/kg/day in drinking water, 9 days
[2] = measured on day 11, two days after compound withdrawal

T1 sequence (Q15858 whole entry): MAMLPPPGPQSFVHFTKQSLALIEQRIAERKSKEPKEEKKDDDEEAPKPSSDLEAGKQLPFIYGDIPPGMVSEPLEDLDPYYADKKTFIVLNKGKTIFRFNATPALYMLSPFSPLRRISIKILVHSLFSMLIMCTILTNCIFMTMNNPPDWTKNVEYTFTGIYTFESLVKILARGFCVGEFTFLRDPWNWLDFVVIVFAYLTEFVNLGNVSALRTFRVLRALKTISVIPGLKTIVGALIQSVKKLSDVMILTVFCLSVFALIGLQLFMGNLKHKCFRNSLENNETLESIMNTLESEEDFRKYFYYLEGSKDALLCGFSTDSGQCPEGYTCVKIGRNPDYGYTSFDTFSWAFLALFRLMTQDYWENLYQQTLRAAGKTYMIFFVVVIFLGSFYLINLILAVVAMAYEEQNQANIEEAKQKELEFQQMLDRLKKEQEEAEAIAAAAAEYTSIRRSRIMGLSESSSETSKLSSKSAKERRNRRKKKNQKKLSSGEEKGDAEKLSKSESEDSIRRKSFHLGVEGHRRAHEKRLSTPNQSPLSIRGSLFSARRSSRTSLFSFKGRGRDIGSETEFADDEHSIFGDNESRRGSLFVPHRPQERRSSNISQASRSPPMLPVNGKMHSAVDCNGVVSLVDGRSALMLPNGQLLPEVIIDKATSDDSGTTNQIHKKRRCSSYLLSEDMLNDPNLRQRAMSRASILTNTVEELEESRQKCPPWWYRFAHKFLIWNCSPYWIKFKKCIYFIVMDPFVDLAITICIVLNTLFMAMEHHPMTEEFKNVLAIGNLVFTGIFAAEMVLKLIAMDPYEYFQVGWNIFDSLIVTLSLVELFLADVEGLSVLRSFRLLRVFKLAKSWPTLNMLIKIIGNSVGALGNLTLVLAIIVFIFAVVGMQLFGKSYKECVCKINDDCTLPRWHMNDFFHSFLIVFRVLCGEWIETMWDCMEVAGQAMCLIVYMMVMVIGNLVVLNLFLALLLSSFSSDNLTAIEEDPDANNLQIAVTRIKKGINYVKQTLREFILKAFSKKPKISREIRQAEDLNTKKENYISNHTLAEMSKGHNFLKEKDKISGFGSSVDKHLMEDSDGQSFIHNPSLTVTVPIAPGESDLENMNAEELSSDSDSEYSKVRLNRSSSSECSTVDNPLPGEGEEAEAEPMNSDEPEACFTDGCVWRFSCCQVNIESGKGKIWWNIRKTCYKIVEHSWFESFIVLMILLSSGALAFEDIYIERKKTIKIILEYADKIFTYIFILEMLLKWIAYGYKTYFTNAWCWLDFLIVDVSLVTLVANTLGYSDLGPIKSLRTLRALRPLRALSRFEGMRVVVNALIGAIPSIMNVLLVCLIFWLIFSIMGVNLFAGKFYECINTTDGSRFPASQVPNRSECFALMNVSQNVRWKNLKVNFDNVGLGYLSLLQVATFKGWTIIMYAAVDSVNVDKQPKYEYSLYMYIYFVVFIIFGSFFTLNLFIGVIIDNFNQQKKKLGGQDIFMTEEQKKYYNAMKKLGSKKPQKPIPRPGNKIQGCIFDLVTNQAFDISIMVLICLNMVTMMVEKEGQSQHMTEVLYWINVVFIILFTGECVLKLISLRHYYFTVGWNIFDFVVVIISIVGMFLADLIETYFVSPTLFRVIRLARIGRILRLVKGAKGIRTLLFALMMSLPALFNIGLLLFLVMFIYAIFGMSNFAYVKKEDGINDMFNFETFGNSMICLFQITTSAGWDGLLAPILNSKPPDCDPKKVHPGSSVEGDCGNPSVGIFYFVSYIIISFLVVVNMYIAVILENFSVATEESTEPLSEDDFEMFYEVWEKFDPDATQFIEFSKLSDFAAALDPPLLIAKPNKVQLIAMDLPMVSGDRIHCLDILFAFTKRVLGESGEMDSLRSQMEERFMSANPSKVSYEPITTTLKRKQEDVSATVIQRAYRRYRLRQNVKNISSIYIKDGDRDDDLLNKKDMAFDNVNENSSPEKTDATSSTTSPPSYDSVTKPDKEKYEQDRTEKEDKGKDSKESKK
T1 sequence (Q07699 19-218 partner): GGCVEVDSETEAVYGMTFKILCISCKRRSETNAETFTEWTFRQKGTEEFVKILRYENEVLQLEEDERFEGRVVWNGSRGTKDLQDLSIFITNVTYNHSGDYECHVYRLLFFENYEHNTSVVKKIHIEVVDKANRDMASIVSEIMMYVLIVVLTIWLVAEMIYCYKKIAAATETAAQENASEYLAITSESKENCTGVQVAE
T1 sequence (O60939 30-215 partner): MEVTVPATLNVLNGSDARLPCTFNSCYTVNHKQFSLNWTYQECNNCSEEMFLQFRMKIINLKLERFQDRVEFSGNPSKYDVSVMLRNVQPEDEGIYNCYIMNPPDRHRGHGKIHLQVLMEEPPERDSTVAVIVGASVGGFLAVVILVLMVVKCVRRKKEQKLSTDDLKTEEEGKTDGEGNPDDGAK

| Structure (SMILES) | IC50 (NaV1.7) [nM] | effect in the tactile allodynia test relative to vehicle control (Sprague-Dawley rats) | reduction in pain response (formalin assay phase 2) relative to vehicle control (rat) | reduction in pain response (formalin assay, phase 1) relative to vehicle control (rat) | food intake compared to the vehicle control group (diabetic rats; FIG. 1, 60 mg/kg/day for 9 days, reduction continues through week 52) | glucose level compared to the vehicle control group (diabetic rats; FIG. 2, 60 mg/kg/day for 9 days, reduction continues through week 52) | water intake compared to the vehicle control group (diabetic rats; FIG. 3, 60 mg/kg/day for 9 days, reduction continues through week 52) | general appearance and/or health (diabetic rats; after the treatment stopped on day 9) | mechanical pain (paw pressure test) (diabetic rats; [1]) | tachyphylaxis (diabetic rats; [1]) | thermal pain (plantar test) (diabetic rats; [1]) | paw pressure test threshold after compound withdrawal (diabetic rats; [2]) | plantar test threshold after compound withdrawal (diabetic rats; [2]) |
| --- | --- | --- | --- | --- | --- | --- | --- | --- | --- | --- | --- | --- | --- |
| C#CCN(CCCc1cc(Cl)ccc1Oc1cc(F)c(S(=O)(=O)Nc2nccs2)cc1Cl)CC(=O)O [Compound 54, 2-((3-(5-chloro-2-(2-chloro-5-fluoro-4-(N-(thiazol-2-yl)sulfamoyl)phenoxy)phenyl)propyl)(prop-2-yn-1-yl)amino)acetic acid] | < 100 | no significant effect |  |  |  |  |  |  |  |  |  |  |  |
| O=C(O)CCNCCCc1cc(Cl)ccc1Oc1cc(F)c(S(=O)(=O)Nc2ncns2)cc1Cl [Compound 12, 3-((3-(2-(4-(N-(1,2,4-thiadiazol-5-yl)sulfamoyl)-2-chloro-5-fluorophenoxy)-5-chlorophenyl)propyl)amino)propanoic acid] |  |  | 29-43% | 13-24% |  |  |  |  |  |  |  |  |  |
| NC(=O)CNCCCc1cc(Cl)ccc1Oc1cc(F)c(S(=O)(=O)Nc2cscn2)cc1Cl [Compound 49, 2-((3-(5-chloro-2-(2-chloro-5-fluoro-4-(N-(thiazol-4-yl)sulfamoyl)phenoxy)phenyl)propyl)amino)acetamide] |  | no significant effect |  |  | significantly reduced | significantly reduced | significantly reduced | improvements in general appearance and/or health | rapid and sustained improvement | no tachyphylaxis | rapid and sustained improvement | returned to the pretreatment baseline | returned to the pretreatment baseline |
